What was measured:
[1] = Particle size by dynamic light scattering / laser diffraction; type: physicochemical
Procedure: (§1) The particle size and particle size distribution of samples were determined by dynamic light scattering (DLS) using electrophoretic light scattering spectrophotometer (ELS-8000, Otsuka Electronics, Japan) at a fixed angle of 90° and at room temperature. The samples were dispersed in mineral oil (Macrol 52, Exxon Mobil Co., USA) and sonicated before measurement. The particle size and particle size distribution of samples were also determined with a Sympatec laser diffraction analyzer (HELOS/RODOS, Clausthal-Zellerfeld, Germany) consisted of a laser sensor HELOS and a RODOS dry-powder air-dispersion system. The specific surface area was determined using the gas adsorption method. Calculation is based on the BET equation. Surface Area Analyzer ASAP 2010 (Micromeritics Instrument Corporation, USA) was used.

[2] = Specific surface area by gas adsorption (BET); type: physicochemical; conditions: BET equation
Procedure: as §1

[3] = DLS, dispersed in mineral oil, room temperature

Row | Structure (SMILES) | Mean particle size ([1]; DLS / laser diffraction) | Specific surface area [2] | Mean particle size [1, 3]
1 | CC(C)c1c(C(=O)Nc2ccccc2)c(-c2ccccc2)c(-c2ccc(F)cc2)n1CC[C@@H](O)C[C@@H](O)CC(=O)[O-].CC(C)c1c(C(=O)Nc2ccccc2)c(-c2ccccc2)c(-c2ccc(F)cc2)n1CC[C@@H](O)C[C@@H](O)CC(=O)[O-].[Ca+2] [Comparative Example 1, atorvastatin calcium, reference compound] | 7.31 μm | 0.95 m^2/g | 
2 | CC(C)c1c(C(=O)Nc2ccccc2)c(-c2ccccc2)c(-c2ccc(F)cc2)n1CC[C@@H](O)C[C@@H](O)CC(=O)[O-].CC(C)c1c(C(=O)Nc2ccccc2)c(-c2ccccc2)c(-c2ccc(F)cc2)n1CC[C@@H](O)C[C@@H](O)CC(=O)[O-].[Ca+2] [Example 2, atorvastatin calcium] |  | 90.28 m^2/g | 179 nm
3 | CC(C)c1c(C(=O)Nc2ccccc2)c(-c2ccccc2)c(-c2ccc(F)cc2)n1CC[C@@H](O)C[C@@H](O)CC(=O)[O-].CC(C)c1c(C(=O)Nc2ccccc2)c(-c2ccccc2)c(-c2ccc(F)cc2)n1CC[C@@H](O)C[C@@H](O)CC(=O)[O-].[Ca+2] [Example 9, atorvastatin calcium] |  | 47.82 m^2/g | 265 nm
4 | CC(C)c1c(C(=O)Nc2ccccc2)c(-c2ccccc2)c(-c2ccc(F)cc2)n1CC[C@@H](O)C[C@@H](O)CC(=O)[O-].CC(C)c1c(C(=O)Nc2ccccc2)c(-c2ccccc2)c(-c2ccc(F)cc2)n1CC[C@@H](O)C[C@@H](O)CC(=O)[O-].[Ca+2] [Example 10, atorvastatin calcium] |  | 30.88 m^2/g | 727 nm
5 | CC(C)c1c(C(=O)Nc2ccccc2)c(-c2ccccc2)c(-c2ccc(F)cc2)n1CC[C@@H](O)C[C@@H](O)CC(=O)[O-].CC(C)c1c(C(=O)Nc2ccccc2)c(-c2ccccc2)c(-c2ccc(F)cc2)n1CC[C@@H](O)C[C@@H](O)CC(=O)[O-].[Ca+2] [Example 18, atorvastatin calcium] |  | 79.78 m^2/g | 155 nm
6 | CC(C)c1c(C(=O)Nc2ccccc2)c(-c2ccccc2)c(-c2ccc(F)cc2)n1CC[C@@H](O)C[C@@H](O)CC(=O)[O-].CC(C)c1c(C(=O)Nc2ccccc2)c(-c2ccccc2)c(-c2ccc(F)cc2)n1CC[C@@H](O)C[C@@H](O)CC(=O)[O-].[Ca+2] [Example 25, atorvastatin calcium] |  | 120.35 m^2/g | 65 nm
7 | CC(C)c1c(C(=O)Nc2ccccc2)c(-c2ccccc2)c(-c2ccc(F)cc2)n1CC[C@@H](O)C[C@@H](O)CC(=O)[O-].CC(C)c1c(C(=O)Nc2ccccc2)c(-c2ccccc2)c(-c2ccc(F)cc2)n1CC[C@@H](O)C[C@@H](O)CC(=O)[O-].[Ca+2] [Starting material, atorvastatin calcium, reference compound] | 3.87 μm | 14.56 m^2/g | 

Source: patent US20090124817A1 (The Industry & Academic Cooperation in Chungnam National …, priority 2007, published 2009)
